Measured values from patent US4933347A, “Diamidines and bis(imidazolines) for the treatment of and prophylaxis against pneumocystis carinii pneumonia” (University of North Carolina at Chapel Hill, priority 1988, dated 1990).

Assays:
[1] = Solubility (insoluble, not tested in animals); format: physicochemical
Pneumocystis carinii [2] = test: Treatment of Pneumocystis carinii pneumonia in Sprague-Dawley rats (extent of disease by histologic score); format: in vivo, male Sprague-Dawley rats; settings: for Extent of Disease by Histologic Score: number of animals with score 0.5 / Extent of Disease by Histologic Score: number of animals with score 1 / Extent of Disease by Histologic Score: number of animals with score 2 / Extent of Disease by Histologic Score: number of animals with score 3 / Extent of Disease by Histologic Score: number of animals with score 4: 14 days; for Extent of Disease by Histologic Score: number of animals with score 0.5 / Extent of disease by histologic score (combined): number of animals in scoring group 0.5: 0.5 = <10 cysts found per 2 sections; for Extent of Disease by Histologic Score: number of animals with score 1 / Extent of disease by histologic score (combined): number of animals in scoring group 1: 1 = scattered cysts, <5% of lung involved; for Extent of Disease by Histologic Score: number of animals with score 2 / Extent of disease by histologic score (combined): number of animals in scoring group 2: 2 = scattered cysts; for Extent of Disease by Histologic Score: number of animals with score 2: 5-10% lung involved or small foci of infection; for Extent of Disease by Histologic Score: number of animals with score 3 / Extent of disease by histologic score (combined): number of animals in scoring group 3: 3 = scattered cysts; for Extent of Disease by Histologic Score: number of animals with score 3: 10-50% of lung involved with some intense areas of infection; for Extent of Disease by Histologic Score: number of animals with score 4: 4 = >50% of lung involved with many intense areas of focal infection; for Extent of disease by histologic score (combined): number of animals in scoring group 0.5 / Extent of disease by histologic score (combined): number of animals in scoring group 1 / Extent of disease by histologic score (combined): number of animals in scoring group 2 / Extent of disease by histologic score (combined): number of animals in scoring group 3 / Extent of disease by histologic score (combined): number of animals in scoring group 4: Table XII composite; for Extent of disease by histologic score (combined): number of animals in scoring group 2: 5-10% of lung involved; for Extent of disease by histologic score (combined): number of animals in scoring group 3: 10-50% of lung involved; for Extent of disease by histologic score (combined): number of animals in scoring group 4: 4 = >50% of lung involved; for Efficacy in treating Pneumocystis carinii (words): 2.5 mg/kg
[3] = Toxicity of amidines in rats (standard laboratory procedure); format: in vivo; settings: rat, in vivo
Protocol: Compounds having the structure represented by Formula I were synthesized in accordance with the appropriate procedures discussed previously. The reaction schemes shown in Charts I-III specifically identify the methodology used to synthesize the compounds of the respective examples. The compounds which were synthesized are shown in Table IA and the elemental analysis and melting points of the compounds are shown in Table IB. Most of the compounds were tested for toxicity in rats using standard laboratory procedure and the results of that toxicity testing are shown in Table XII. The compounds of Examples 31, 32, and 34 were not synthesized but may be synthesized in the general manner discussed previously.

Pneumocystis carinii [4] = settings: in vivo; cited from earlier work

SMILES: N=C(N)c1ccc(OCCOc2ccc(C(=N)N)cc2)cc1 [Example 1]
- Solubility (not tested in animals - insoluble) [1]: insoluble

SMILES: N=C(N)c1ccc(OCCOc2ccc(C(=N)N)cc2[N+](=O)[O-])c([N+](=O)[O-])c1 [Example 2]
- Solubility (not tested in animals - insoluble) [1]: insoluble

SMILES: N=C(N)c1ccc(OCCCCCOc2ccc(C(=N)N)cc2Br)c(Br)c1 [Example 16]
- Solubility (not tested in animals - insoluble) [1]: insoluble

SMILES: COc1cc(C2=NCCN2)ccc1OCCCCCOc1ccc(C2=NCCN2)cc1OC [Example 43]
- Extent of Disease by Histologic Score: number of animals with score 0.5 (Pneumocystis carinii [2]; 5 mg/kg i.v. daily): 1 animals
- Extent of Disease by Histologic Score: number of animals with score 1 (Pneumocystis carinii [2]; 5 mg/kg i.v. daily): 3 animals
- Extent of Disease by Histologic Score: number of animals with score 2 (Pneumocystis carinii [2]; 5 mg/kg i.v. daily): 1 animals
- Extent of Disease by Histologic Score: number of animals with score 3 (Pneumocystis carinii [2]; 5 mg/kg i.v. daily): 2 animals
- Extent of Disease by Histologic Score: number of animals with score 4 (Pneumocystis carinii [2]; 5 mg/kg i.v. daily): 0 animals
- Extent of disease by histologic score (combined): number of animals in scoring group 0.5 (Pneumocystis carinii [2]; tested at 5 mg/kg): 1 animals
- Extent of disease by histologic score (combined): number of animals in scoring group 1 (Pneumocystis carinii [2]; tested at 5 mg/kg): 3 animals
- Extent of disease by histologic score (combined): number of animals in scoring group 2 (Pneumocystis carinii [2]; tested at 5 mg/kg): 1 animals
- Extent of disease by histologic score (combined): number of animals in scoring group 3 (Pneumocystis carinii [2]; tested at 5 mg/kg): 2 animals
- Extent of disease by histologic score (combined): number of animals in scoring group 4 (Pneumocystis carinii [2]; tested at 5 mg/kg): 0 animals
- Efficacy in treating PCP compared with control (Pneumocystis carinii [2]; compound at 5 mg/kg): significantly better than the control
- Toxicity of amidines: Effect ([3]; 5 mg/kg): no toxicity

SMILES: COc1cc(C2=NCCN2)ccc1OCCCOc1ccc(C2=NCCN2)cc1OC [Example 44]
- Efficacy in treating Pneumocystis carinii (words) (Pneumocystis carinii [2]): very effective in treating Pneumocystis carinii
- Extent of Disease by Histologic Score: number of animals with score 0.5 (Pneumocystis carinii [2]; 2.5 mg/kg i.v. daily): 6 animals
- Extent of Disease by Histologic Score: number of animals with score 1 (Pneumocystis carinii [2]; 2.5 mg/kg i.v. daily): 2 animals
- Extent of Disease by Histologic Score: number of animals with score 2 (Pneumocystis carinii [2]; 2.5 mg/kg i.v. daily): 0 animals
- Extent of Disease by Histologic Score: number of animals with score 3 (Pneumocystis carinii [2]; 2.5 mg/kg i.v. daily): 0 animals
- Extent of Disease by Histologic Score: number of animals with score 4 (Pneumocystis carinii [2]; 2.5 mg/kg i.v. daily): 0 animals
- Efficacy in treating Pneumocystis carinii (words) (Pneumocystis carinii [2]; listed as Compound 44): very good at one fourth the dose level of pentamidine
- Extent of disease by histologic score (combined): number of animals in scoring group 0.5 (Pneumocystis carinii [2]; tested at 2.5 mg/kg): 6 animals
- Extent of disease by histologic score (combined): number of animals in scoring group 1 (Pneumocystis carinii [2]; tested at 2.5 mg/kg): 2 animals
- Extent of disease by histologic score (combined): number of animals in scoring group 2 (Pneumocystis carinii [2]; tested at 2.5 mg/kg): 0 animals
- Extent of disease by histologic score (combined): number of animals in scoring group 3 (Pneumocystis carinii [2]; tested at 2.5 mg/kg): 0 animals
- Extent of disease by histologic score (combined): number of animals in scoring group 4 (Pneumocystis carinii [2]; tested at 2.5 mg/kg): 0 animals
- Efficacy in treating PCP compared with pentamidine (Pneumocystis carinii [2]; compound at 2.5 mg/kg): much better than pentamidine at only one fourth the dose
- Toxicity of amidines: Effect ([3]; 2.5 mg/kg): no toxicity

SMILES: N=C(N)c1ccc(OCCCOc2ccc(C(=N)N)cc2Br)c(Br)c1 [dibromopropamidine]
- Known effectiveness against Pneumocystis carinii pneumonia (Pneumocystis carinii [4]): some effectiveness against PCP
